Tested on: ATF4 luciferase reporter (human full-length ATF4 5'-UTR fused to firefly luciferase) in HEK293T cells
Assay: ATF4-Luc assay (in vitro model of VWMD): HEK293T cells carrying ATF4 luciferase reporter, tunicamycin-treated
Format: cell-based
Conditions: 1 μg/mL tunicamycin, 7 hours, One Glo luminescence
Description: In order to test exemplary compounds of the invention in a cellular context, a stable VWMD cell line was first constructed. The ATF4 reporter was prepared by fusing the human full-length ATF4 5′-UTR (NCBI Accession No. BC022088.2) in front of the firefly luciferase (FLuc) coding sequence lacking the initiator methionine as described in Sidrauski et al (eLife 2013). The construct was used to produce recombinant retroviruses using standard methods and the resulting viral supernatant was used to transduce HEK293T cells, which were then subsequently selected with puromycin to generate a stable cell line.
HEK293T cells carrying the ATF4 luciferase reporter were plated on polylysine coated 384-well plates (Greiner Bio-one) at 30,000 cells per well. Cells were treated the next day with 1 μg/mL tunicamycin and 200 nM of a compound of Formula (I) for 7 hours. Luminescence was measured using One Glo (Promega) as specified by the manufacturer. Cells were maintained in DMEM with L-glutamine supplemented with 10% heat-inactivated FBS (Gibco) and Antibiotic-Antimycotic solution (Gibco).
Table 2 below summarizes the EC50 data obtained using the ATF4-Luc assay for exemplary compounds of the invention.

| Structure (SMILES) | EC50 (Homo sapiens, HEK-293T) [µM] | EC50 [µM] |
| --- | --- | --- |
| O=C(COc1ccc(Cl)c(F)c1)N[C@H]1C[C@H]2C[C@@H]1C[C@@H]2NC(=O)[C@H]1CC(=O)c2cc(Cl)ccc2O1 (mixture of isomers) [Compound 368, (2R)-6-chloro-N-{(1RS,2SR,4RS,5SR)-5-[2-(4-chloro-3-fluorophenoxy)acetamido]bicyclo[2.2.1]heptan-2-yl}-4-oxo-3,4-dihydro-2H-1-benzopyran-2-carboxamide] | < 0.01 | – |
| O=C(COc1ccc(Cl)c(F)c1)NC12CC(NC(=O)[C@@H]3C[C@H](O)c4cc(Cl)ccc4O3)(C1)C2 (racemic) [Compound 190, rac-(2R,4R)-6-chloro-N-{3-[2-(4-chloro-3-fluorophenoxy)acetamido]bicyclo[1.1.1]pentan-1-yl}-4-hydroxy-3,4-dihydro-2H-1-benzopyran-2-carboxamide] | < 0.01 | – |
| O=C(COc1ccc(Cl)c(F)c1)NC12CC(NC(=O)C3CC(N[C@H]4C[C@@H](O)C4)c4cc(Cl)ccc4O3)(C1)C2 (mixture of isomers) [Compound 209, 6-chloro-N-{3-[2-(4-chloro-3-fluorophenoxy)acetamido]bicyclo[1.1.1]pentan-1-yl}-4-{[(1s,3s)-3-hydroxycyclobutyl]amino}-3,4-dihydro-2H-1-benzopyran-2-carboxamide] | 0.05 to 0.25 | – |
| O=C(NC12CC(NC(=O)[C@H]3C[C@@H](O)c4cc(Cl)ccc4O3)(C1)C2)c1cnc(C(F)F)cn1 (racemic) [Compound 218, N-(3-{[rac-(2R,4R)-6-chloro-4-hydroxy-3,4-dihydro-2H-1-benzopyran-2-carbonyl]amino}bicyclo[1.1.1]pentan-1-yl)-5-(difluoromethyl)pyrazine-2-carboxamide] | 0.01 to 0.05 | – |
| O=C(COc1ccc(Cl)c(F)c1)NC12CC(NC(=O)[C@H]3C[C@@H](O)c4cc(Cl)c(F)cc4O3)(C1)C2 (racemic) [Compound 234, rac-(2R,4R)-6-chloro-N-{3-[2-(4-chloro-3-fluorophenoxy)acetamido]bicyclo[1.1.1]pentan-1-yl}-7-fluoro-4-hydroxy-3,4-dihydro-2H-1-benzopyran-2-carboxamide] | < 0.01 | – |
| O=C(COc1ccc(Cl)c(F)c1)NC12CC(NC(=O)[C@H]3C[C@@H](O)c4cc(F)c(F)cc4O3)(C1)C2 (racemic) [Compound 249, rac-(2R,4R)—N-{3-[2-(4-chloro-3-fluorophenoxy)acetamido]bicyclo[1.1.1]pentan-1-yl}-6,7-difluoro-4-hydroxy-3,4-dihydro-2H-1-benzopyran-2-carboxamide] | < 0.01 | – |
| C[C@]1(C(=O)NC23CC(NC(=O)COc4ccc(Cl)c(F)c4)(C2)C3)C[C@H](O)c2cc(Cl)ccc2O1 (racemic) [Compound 250, rac-(2R,4S)-6-chloro-N-{3-[2-(4-chloro-3-fluorophenoxy)acetamido]bicyclo[1.1.1]pentan-1-yl}-4-hydroxy-2-methyl-3,4-dihydro-2H-1-benzopyran-2-carboxamide] | 0.05 to 0.25 | – |
| C[C@]1(C(=O)NC23CC(NC(=O)COc4ccc(Cl)c(F)c4)(C2)C3)C[C@@H](O)c2cc(Cl)ccc2O1 (racemic) [Compound 251, rac-(2R,4R)-6-chloro-N-{3-[2-(4-chloro-3-fluorophenoxy)acetamido]bicyclo[1.1.1]pentan-1-yl}-4-hydroxy-2-methyl-3,4-dihydro-2H-1-benzopyran-2-carboxamide] | 0.01 to 0.05 | – |
| O=C(NC12CCC(NC(=O)[C@H]3C[C@@H](O)c4cc(Cl)ccc4O3)(C1)C2)c1ccc(OC(F)(F)F)cn1 (racemic) [Compound 293, N-(4-{[rac-(2R,4R)-6-chloro-4-hydroxy-3,4-dihydro-2H-1-benzopyran-2-carbonyl]amino}bicyclo[2.1.1]hexan-1-yl)-5-(trifluoromethoxy)pyridine-2-carboxamide] | 0.01 to 0.05 | – |
| O=C(COc1ccc(Cl)c(F)c1)NC12CCC(NC(=O)[C@H]3C[C@@H](O)c4cc(Cl)ccc4O3)(C1)C2 (racemic) [Compound 296, rac-(2R,4R)-6-chloro-N-{4-[2-(4-chloro-3-fluorophenoxy)acetamido]bicyclo[2.1.1]hexan-1-yl}-4-hydroxy-3,4-dihydro-2H-1-benzopyran-2-carboxamide] | < 0.01 | – |
| O=C(COc1ccc(Cl)c(F)c1)NC12CC(NC(=O)[C@H]3C[C@H](NCCO)c4cc(Cl)ccc4O3)(C1)C2 (racemic) [Compound 301, rac-(2R,4S)-6-chloro-N-{3-[2-(4-chloro-3-fluorophenoxy)acetamido]bicyclo[1.1.1]pentan-1-yl}-4-[(2-hydroxyethyl)amino]-3,4-dihydro-2H-1-benzopyran-2-carboxamide] | < 0.01 | – |
| O=C(NC12CCC(NC(=O)[C@H]3C[C@@H](O)c4cc(Cl)ccc4O3)(CC1)CC2)c1cnc(C(F)F)cn1 (racemic) [Compound 302, N-(4-{[rac-(2R,4R)-6-chloro-4-hydroxy-3,4-dihydro-2H-1-benzopyran-2-carbonyl]amino}bicyclo[2.2.2]octan-1-yl)-5-(difluoromethyl)pyrazine-2-carboxamide] | 0.05 to 0.25 | – |
| COc1ccc2c(n1)[C@H](O)C[C@H](C(=O)NC13CC(NC(=O)COc4ccc(Cl)c(F)c4)(C1)C3)O2 (racemic) [Compound 334, rac-(2R,4R)—N-{3-[2-(4-chloro-3-fluorophenoxy)acetamido]bicyclo[1.1.1]pentan-1-yl}-4-hydroxy-6-methoxy-3,4-dihydro-2H-pyrano[3,2-b]pyridine-2-carboxamide] | 0.05 to 0.25 | – |
| CO[C@@H]1C[C@H](C(=O)NC23CC(NC(=O)COc4ccc(Cl)c(F)c4)(C2)C3)Oc2ccc(Cl)cc21 (racemic) [Compound 340, rac-(2R,4R)-6-chloro-N-{3-[2-(4-chloro-3-fluorophenoxy)acetamido]bicyclo[1.1.1]pentan-1-yl}-4-methoxy-3,4-dihydro-2H-1-benzopyran-2-carboxamide] | < 0.01 | – |
| O=C(COc1ccc(Cl)c(F)c1)NC12CC(NC(=O)[C@H]3C[C@H](NC4(CO)CC4)c4cc(Cl)ccc4O3)(C1)C2 (racemic) [Compound 343, rac-(2R,4S)-6-chloro-N-{3-[2-(4-chloro-3-fluorophenoxy)acetamido]bicyclo[1.1.1]pentan-1-yl}-4-{[1-(hydroxymethyl)cyclopropyl]amino}-3,4-dihydro-2H-1-benzopyran-2-carboxamide] | 0.01 to 0.05 | – |
| O=C(COc1ccc(Cl)c(F)c1)NC12CCC(NC(=O)[C@H]3C[C@@H](O)c4cc(Cl)ccc4O3)(CC1)NC2=O (racemic) [Compound 364, rac-(2R,4R)-6-chloro-N-{4-[2-(4-chloro-3-fluorophenoxy)acetamido]-3-oxo-2-azabicyclo[2.2.2]octan-1-yl}-4-hydroxy-3,4-dihydro-2H-1-benzopyran-2-carboxamide] | < 0.01 | – |
| O=C(COc1ccc(Cl)c(F)c1)N[C@@H]1C[C@@H]2O[C@H]1C[C@H]2NC(=O)[C@@H]1C[C@@H](O)c2cc(Cl)ccc2O1 (racemic) [Compound 369, (2S,4R)-6-chloro-N-{(1RS,2SR,4RS,5SR)-5-[2-(4-chloro-3-fluorophenoxy)acetamido]-7-oxabicyclo[2.2.1]heptan-2-yl}-4-hydroxy-3,4-dihydro-2H-1-benzopyran-2-carboxamide] | 0.01 to 0.05 | – |
| O=C(COc1ccc(Cl)c(F)c1)N[C@@H]1C[C@@H]2O[C@H]1C[C@H]2NC(=O)[C@H]1C[C@@H](O)c2cc(Cl)ccc2O1 (racemic) [Compound 370, (2R,4R)-6-chloro-N-{(1RS,2SR,4RS,5SR)-5-[2-(4-chloro-3-fluorophenoxy)acetamido]-7-oxabicyclo[2.2.1]heptan-2-yl}-4-hydroxy-3,4-dihydro-2H-1-benzopyran-2-carboxamide] | < 0.01 | – |
| O=C(COc1ccc(Cl)c(F)c1)N[C@@H]1C[C@@H]2C[C@H]1C[C@H]2NC(=O)[C@H]1C[C@@H](O)c2cc(Cl)ccc2O1 (racemic) [Compound 371, (2R,4R)-6-chloro-N-{(1RS,2SR,4RS,5SR)-5-[2-(4-chloro-3-fluorophenoxy)acetamido]bicyclo[2.2.1]heptan-2-yl}-4-hydroxy-3,4-dihydro-2H-1-benzopyran-2-carboxamide] | < 0.01 | – |
| O=C(COc1ccc(Cl)c(F)c1)N[C@@H]1C[C@@H]2O[C@H]1C[C@H]2NC(=O)[C@@H]1C[C@H](O)c2cc(Cl)ccc2O1 (racemic) [Compound 372, (2S,4S)-6-chloro-N-{(1RS,2SR,4RS,5SR)-5-[2-(4-chloro-3-fluorophenoxy)acetamido]-7-oxabicyclo[2.2.1]heptan-2-yl}-4-hydroxy-3,4-dihydro-2H-1-benzopyran-2-carboxamide] | 0.01 to 0.05 | – |
| O=C(COc1ccc(Cl)c(F)c1)NC12CC(NC(=O)C3CNc4cc(Cl)ccc4O3)(C1)C2 (single isomer, unassigned) [Compound 102] | < 0.01 | – |
| O=C(COc1ccc(Cl)c(F)c1)NC12CC(NC(=O)C3CNc4cc(Cl)ccc4O3)(C1)C2 (single isomer, unassigned) [Compound 103] | – | < 0.01 |
| CN1CC(C(=O)NC23CC(NC(=O)COc4ccc(Cl)c(F)c4)(C2)C3)Oc2ccc(Cl)cc21 (single isomer, unassigned) [Compound 104] | < 0.01 | – |
| O=C(COc1ccc(Cl)c(F)c1)NC12CC(NC(=O)[C@@H]3C[C@H](O)c4cc(F)c(Cl)cc4O3)(C1)C2 (single isomer, unassigned) [Compound 205] | < 0.01 | – |
| O=C(COc1ccc(Cl)c(F)c1)NC12CC(NC(=O)[C@H]3C[C@@H](O)c4cc(F)c(Cl)cc4O3)(C1)C2 (single isomer, unassigned) [Compound 206] | < 0.01 | – |

From US20240018133A1, “MODULATORS OF THE INTEGRATED STRESS PATHWAY” (Calico Life Sciences LLC, priority 2019, published 2024)
